As usually defined, the IC50 is the concentration at which inhibition is half-maximal.

The values below come from article PMC5746060, “General and Modular Strategy for Designing Potent, Selective, and Pharmacologically Compliant Inhibitors of Rhomboid Proteases” (Cell Chemical Biology, 2017).

Non-standard residues stand in square brackets, D forms with d. Residues, ends and D or L forms follow the SMILES beside them. ξ: configuration not given here. *: point of attachment. X3 = C[C@H](N*)C(=O)NS(C)(=O)=O; X4 = C[C@H](N*)C(=O)c1nccs1; boroAla = C[C@H](N*)B(O)O; ξA = CC(N)C(=O)O; CF3 = FC(F)(F)*; CH2Cl = ClC*

The test has as its target T1, Escherichia coli rhomboid GlpG (Escherichia coli, UniProt P09391).
T1 construct: made in house; host or cells: E. coli C41(DE3)
Briefly: in vitro GlpG inhibition assay with fluorogenic transmembrane peptide substrate (apparent IC50). Format: biochemical. Conditions: for IC50: 1 hr preincubation, 10 μM fluorogenic substrate KSp35, 0.05% (w/v) DDM; for fold decrease in potency compared with the parent compound 9: N-terminal truncation series. From the text: To gain insight into these preferences and their possible interactions, we have generated tetra- and pentapeptidyl chloromethylketones (CMK or cmk henceforth) harboring amino acids preferred in positions P5 to P1 by the Escherichia coli rhomboid GlpG (GlpG henceforth), using the sequence background of the Providencia TatA ([Stevenson et al., 2007]), represented by the parent compound Ac-IATA-cmk. We measured the inhibitory properties of this series of compounds using a newly developed in vitro assay employing a fluorogenic transmembrane peptide substrate ([Ticha et al., 2017]) that faithfully represents a native rhomboid substrate.
Figure 1 The Potency of Substrate-Derived Inhibitors Can be Improved by Modifying the Amino acid Sequence of the P5 to P1 Region (A) The parent inhibitor Ac-IATA-cmk was modified by introducing strongly preferred amino acids ([Zoll et al., 2014]) into the P4, P3, P2, and P5 positions to yield the listed compounds. Their apparent IC50 values were measured with 1 hr preincubation using 10 μM fluorogenic substrate KSp35 and 0.05% (w/v) DDM. The reported values are best-fit means with SD representative of 2–3 measurements. (B) The sequence-optimized peptidyl chloromethylketones were soaked into the native crystals of GlpG and structures of the complexes were solved by X-ray diffraction (for statistics, see Table S1). […] Note that in the Ac-RVRHA-cmk structure (right), the side chain of the Arg residue in the P5 position of the inhibitor has not been modeled due to poor or missing electron density peaks. (C) Interactions of RVRHA-cmk with GlpG were analyzed by Ligplot+ ([Laskowski and Swindells, 2011]). Ligands are shown as thick sticks with carbons in green, proteins as thin sticks with carbons in gray, hydrogen bonds as yellow dashed lines, and amino acids involved in van der Waals contacts are highlighted as transparent surfaces. The inhibitor forms covalent bonds with S201 and H254 via the chloromethylketone warhead, and it hydrogen bonds with the backbone of residues 196–198 from the L3 loop and residues 248–250 from the L5 loop. van der Waals contacts with the inhibitor are formed by the residues from the L3 loop of GlpG, by S193 and Q189 from TMD3, and by F146 and M120 from the L1 loop that pack against the Val side chain of the P4 position of the inhibitor, as observed previously ([Zoll et al., 2014]). (D) The conformations of peptide inhibitors bound to the active site of GlpG were compared by performing structural alignment of the complexes of VRHAcmk (PDB: 5MT7), RVRHAcmk (PDB: 5MT8), IATAcmk (PDB: 4QO2), and VRMAcho (PDB: 5F5B) in PyMOL ([Schrodinger, 2012]). […] The backbone of the ligands in all complexes has virtually identical conformation with the exception of the distortion of the oxyanion by the chloromethylketone, and the biggest differences are found in the conformation of the P2 side chain, which is not surprising, because almost any side chain can be accommodated in this position ([Zoll et al., 2014]). TEXT PRINTED IN THE PICTURE: (A) AcIATAcmk: IC50 (μM): 213 | (A) AcVATAcmk: IC50 (μM): 450 | (A) AcIAHAcmk: IC50 (μM): 200 | (A) AcIRTAcmk: IC50 (μM): 84 | (A) AcVRHAcmk: IC50 (μM): 27 | (A) AcRVRHAcmk: IC50 (μM): 8
Figure 2 A Screen of Electrophilic Warheads for the Inhibition of Rhomboid Proteases The optimized parent sequence Ac-RVRHA was linked to electrophilic warheads commonly used for targeting serine proteases (reviewed in [Hedstrom, 2002], [Walker and Lynas, 2001]). The apparent IC50 values of the compounds were measured in 0.05% DDM using 10 μM substrate KSp35 ([Ticha et al., 2017]) with 1 hr preincubation. Given are the mean values of 2–3 measurements. […]

T1 sequence (P09391 whole entry): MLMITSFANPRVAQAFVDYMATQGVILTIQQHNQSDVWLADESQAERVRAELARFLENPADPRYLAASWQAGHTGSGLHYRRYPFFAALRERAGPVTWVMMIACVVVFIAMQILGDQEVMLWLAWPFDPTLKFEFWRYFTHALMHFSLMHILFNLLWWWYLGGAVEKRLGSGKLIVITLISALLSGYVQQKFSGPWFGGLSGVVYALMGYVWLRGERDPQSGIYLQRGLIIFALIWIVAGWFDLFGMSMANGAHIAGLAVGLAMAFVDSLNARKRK

As to `CC[C@H](C)[C@H](NC(C)=O)C(=O)N[C@@H](C)C(=O)N[C@@H](Cc1c[nH]cn1)C(=O)N[C@@H](C)C(=O)CCl` [AcIAHAcmk] (Ac-IAHA-CH2Cl), the half-maximal inhibitory concentration (IC50) was determined as 200 µM. As for `CC[C@H](C)[C@H](NC(C)=O)C(=O)N[C@@H](C)C(=O)N[C@H](C(=O)N[C@@H](C)C(=O)CCl)[C@@H](C)O` [AcIATAcmk, reference compound] (Ac-IATA-CH2Cl), the half-inhibitory concentration (IC50) was determined as 213 µM. Turning to `CC[C@H](C)[C@H](NC(C)=O)C(=O)N[C@@H](CCCNC(=N)N)C(=O)N[C@H](C(=O)N[C@@H](C)C(=O)CCl)[C@@H](C)O` [AcIRTAcmk] (Ac-IRTA-CH2Cl), the IC50 stood at 84 µM.

In the case of `CC(=O)N[C@@H](CCCNC(=N)N)C(=O)N[C@H](C(=O)N[C@@H](CCCNC(=N)N)C(=O)N[C@@H](Cc1c[nH]cn1)C(=O)N[C@@H](C)C(=O)CCl)C(C)C` [AcRVRHAcmk] (Ac-RVRHA-CH2Cl), the IC50 turned out to be 8 µM. Still for that read-out and setting: for `CC(=O)N[C@H](C(=O)N[C@@H](C)C(=O)N[C@H](C(=O)N[C@@H](C)C(=O)CCl)[C@@H](C)O)C(C)C` [AcVATAcmk] (Ac-VATA-CH2Cl) the value was 450 µM; for `CC(=O)N[C@H](C(=O)N[C@@H](CCCNC(=N)N)C(=O)N[C@@H](Cc1c[nH]cn1)C(=O)N[C@@H](C)C(=O)CCl)C(C)C` [AcVRHAcmk] (Ac-VRHA-CH2Cl), 27 µM. On the same count and under the same terms, to `CC(=O)N[C@@H](CCCNC(=N)N)C(=O)N[C@H](C(=O)N[C@@H](CCCNC(=N)N)C(=O)N[C@@H](Cc1c[nH]cn1)C(=O)N[C@@H](C)C(=O)NS(C)(=O)=O)C(C)C` [acylsulfonamide, AcRVRHA-acylsulfonamide] (Ac-RVRH-X3) belongs greater than 1000 µM. For `CC(=O)N[C@@H](CCCNC(=N)N)C(=O)N[C@H](C(=O)N[C@@H](CCCNC(=N)N)C(=O)N[C@@H](Cc1c[nH]cn1)C(=O)N[C@@H](C)B(O)O)C(C)C` [boronate, AcRVRHA-boronate] (Ac-RVRH-boroAla), the half-inhibitory concentration (IC50) was 8 µM.

`CC(=O)N[C@H](C(=O)N[C@@H](CCCNC(=N)N)C(=O)N[C@@H](Cc1c[nH]cn1)C(=O)N[C@@H](C)C(=O)C(=O)NCCc1ccccc1)C(C)C` [compound 12]: the IC50 is 0.55 µM. Take `CC(=O)N[C@@H](CCCNC(=N)N)C(=O)N[C@@H](Cc1c[nH]cn1)C(=O)N[C@@H](C)C(=O)C(=O)NCCc1ccccc1` [compound 13, Ac-RHA-CONH-phenylethyl]: the half-maximal inhibitory concentration (IC50) was determined as 9 µM. For the setting “ratio of apparent IC50 values”, the “fold decrease in potency compared with the parent compound 9” value is recorded as roughly 20 fold. Take `CC(=O)N[C@@H](Cc1c[nH]cn1)C(=O)N[C@@H](C)C(=O)C(=O)NCCc1ccccc1` [compound 14]: the half-maximal inhibitory concentration (IC50) was roughly 65 µM. Further, for the setting “ratio of apparent IC50 values”, the “fold decrease in potency compared with the parent compound 9” value is recorded as roughly 150 fold. The matching figures for `CC(=O)N[C@@H](C)C(=O)C(=O)NCCc1ccccc1` [compound 15, Ac-A-CONH-phenylethyl]: greater than 1000 µM and ~2,250 fold. On to `CC(=O)N[C@@H](CCCNC(=N)N)C(=O)N[C@H](C(=O)N[C@@H](CCCNC(=N)N)C(=O)N[C@@H](Cc1c[nH]cn1)C(=O)N[C@@H](C)C(=O)c1nccs1)C(C)C` [thiazolylketone, AcRVRHA-thiazolylketone] (Ac-RVRH-X4), for which the IC50 was greater than 1000 µM. Take `CC(=O)N[C@@H](CCCNC(=N)N)C(=O)N[C@H](C(=O)N[C@@H](CCCNC(=N)N)C(=O)N[C@@H](Cc1c[nH]cn1)C(=O)NC(C)C(=O)C(F)(F)F)C(C)C` (stereo partly shown) [trifluoromethylketone, AcRVRHA-trifluoromethylketone] (Ac-RVRH[ξA]-CF3): the IC50 is greater than 1000 µM.

In the case of “Ac-RVRHA-NH2 [compound 1, AcRVRHA-CONH2]”, the IC50 was determined as 203 µM. For the same compound, the “fold less potent than the peptidyl boronate” value (ratio of apparent IC50 values) is listed as “about 25 fold”.
